Test results: paper PMC4444084, “An Antioxidant Extract of the Insectivorous Plant Drosera burmannii Vahl. Alleviates Iron-Induced Oxidative Stress and Hepatic Injury in Mice” (PLoS ONE, 2015)
In brackets after ≈: the same amount, converted by molar mass. Several values for one entry are separate records, joined by “and”; a condition that tells them apart may be missing. Equal entries are not always repeated. Marks after values point to notes of the source that are not given here.

What was measured:
WST-1 cytotoxicity assay = type: cell-based, human; conditions: human, WI-38 human lung fibroblast cells, WI-38 cells, WST-1
Procedure: (§1) The human lung fibroblast (WI-38) cell line was purchased from the National Centre for Cell Science (NCCS), India. Cells were grown in DMEM supplemented with 10% (v/v) fetal bovine serum (FBS), 100 U/ml penicillin G, 50 μg/ml gentamycin sulfate, 100 μg/ml streptomycin and 2.5 μg/ml amphotericin B. The cell line was maintained in a CO2 incubator at 37°C in a humidified atmosphere containing 5% CO2. Cell proliferation and cell viability were quantified using the WST-1 Cell Proliferation Reagent, Roche diagnostics, according to previously described methods. […] Briefly, WI-38 cells (1 × 10^4 cells/well) were treated with DBME, purpurin, catechin, tannic acid, reserpine, methyl gallate or rutin at doses ranging from 0–120 μg/ml for 48 hours in 96-well culture plates. After treatment, 10 μl of the WST-1 cell proliferation reagent was added to each well followed by 2 hours of incubation at 37°C. Cell proliferation and viability were quantified by measuring the absorbance at 460 nm using a microplate ELISA reader […] EX (Thermo Electron Corporation, USA).

[1] = Iron chelation assay (Fe2+-ferrozine complex formation); type: biochemical; conditions: for Iron chelating activity IC50: Fe2+-ferrozine, HEPES pH 7.2; for in vitro iron chelation ability (in words): Fe2+-ferrozine complex
Procedure: The Fe^2+ chelating activity of DBME, catechin, methyl gallate, purpurin, reserpine, rutin and tannic acid was evaluated according to standard methods. HEPES buffer (20 mM, pH 7.2), DBME (0–120 μg/ml) and a positive control EDTA (0–20 μg/ml) were separately added to a 12.5 μM ferrous sulfate solution, and 75 μM ferrozine was added to start the reaction. The mixture was shaken vigorously and left standing for 20 min at room temperature. Next, the absorbance was measured at 562 nm. All tests were performed six times.

[2] = Hydroxyl radical scavenging; type: biochemical
Procedure: (§2) The ROS scavenging ability of DBME was determined using multiple stable ROS radical scavenging assays, such as hydroxyl, superoxide, hypochlorous radical, singlet oxygen and hydrogen peroxide assays by standard procedures.

WI-38 cells = test: WST-1 cytotoxicity assay; type: cell-based, human; conditions: 48 hours; for cytotoxicity against normal cells (in words): 0-120 μg/ml; for Cytotoxicity assay IC50: WST-1
Procedure: as §1

[3] = Singlet oxygen scavenging; type: biochemical
Procedure: as §2

[4] = Hypochlorous acid scavenging; type: biochemical
Procedure: as §2

[5] = DPPH radical scavenging assay; type: biochemical
Procedure: The total antioxidant capacity of DBME was evaluated by an ABTS•^+ radical cation decolorization assay in comparison to a trolox standard and 2,2-diphenyl-1-picrylhydrazyl (DPPH) radical scavenging assay. The reducing power of DBME was determined using a previously described method.

[6] = Hydrogen peroxide scavenging; type: biochemical
Procedure: as §2

Peroxynitrite scavenging = type: biochemical
Procedure: The RNS scavenging activity of DBME was determined using nitric oxide and peroxynitrite radical scavenging assays.

[7] = Superoxide anion scavenging; type: biochemical
Procedure: as §2

iron overloaded mice [8] = test: Liver antioxidants (SOD, CAT, GST, GSH) in iron overloaded mice; type: in vivo, Swiss albino mice; conditions: D: desirox 20 mg/kg b.w. oral 21 days
Procedure: (§3) Mice were divided into six groups of six mice each. One group was labeled as blank (B) and received normal saline. The other five groups received five intraperitoneal injections of iron-dextran at a dose of 100 mg/kg b.w. (one dose every two days). One iron-dextran group (C) was administered normal saline, and the other four groups were orally treated with either 50 mg/kg b.w. (S50), 100 mg/kg b.w. (S100), 200 mg/kg b.w. (S200) DBME or 20 mg/kg b.w. desirox (D) for 21 days beginning on the day following the first iron-dextran injection.
(§4) After treatment, mice were fasted overnight on the 21st day and anesthetized with ethyl ether. Blood was collected by cardiac puncture. Serum from the blood samples was separated using a cooling centrifuge and stored at -80°C until analysis. The liver was washed with ice-cold saline and divided into three parts. One major portion of the liver was cut, weighed and homogenized in 10 volumes of 0.1 M phosphate buffer (pH 7.4) containing 5 mM EDTA and 0.15 M NaCl. The sample was centrifuged at 8,000 g for 30 min at 4°C. The protein concentration in the supernatant was estimated according to Lowry's method using BSA as a standard. The remaining samples were stored at -80°C until further analysis. Another portion of the liver was weighed and digested using an equivolume mixture of sulfuric acid and nitric acid for iron content analysis. A final liver sample was used for histopathological studies.
Superoxide dismutase (SOD), catalase (CAT) activity, glutathione-S-transferase (GST) and reduced glutathione (GSH) levels were assayed according to previously reported methods.

iron overloaded mice [9] = test: Serum markers (ALAT, ASAT, ALP, bilirubin) in iron overloaded mice; type: in vivo, Swiss albino mice; conditions: D: desirox 20 mg/kg b.w. oral 21 days
Procedure: as §3, §4
Alanine amino transferase (ALAT), aspartate amino transferase (ASAT), and bilirubin levels were measured in serum samples using commercial kits from Merck, Mumbai, India. Serum alkaline phosphatase (ALP) was estimated using a kit supplied by Sentinel diagnostics, Italy. The serum ferritin level was measured using an enzyme-linked immunosorbent assay (Monobind Inc., USA) according to the manufacturer’s instructions.

## COC(=O)c1cc(O)c(O)c(O)c1 [Methyl gallate, methyl gallate]
WST-1 cytotoxicity assay
  IC50 at 48 h: 344 ± 31.3 µg/mL (≈ 1870 µM)
[1]
  Iron chelating activity IC50: 70.86 ± 1.20 µg/mL

## OC[C@@H](O)[C@@H](O)[C@H](O)[C@H](O)CO [Mannitol, mannitol]
[2]
  Hydroxyl radical (OH) scavenging IC50: 571.45 ± 20.12 µg/mL

## COC(=O)[C@H]1[C@H]2C[C@@H]3c4[nH]c5cc(OC)ccc5c4CCN3C[C@H]2C[C@@H](OC(=O)c2cc(OC)c(OC)c(OC)c2)[C@@H]1OC [Reserpine, reserpine]
WI-38 cells
  cytotoxicity against normal cells (in words): most toxic compound
WST-1 cytotoxicity assay
  IC50 at 48 h: 44.8 ± 2.06 µg/mL (≈ 73.6 µM)
[1]
  in vitro iron chelation ability (in words): failed to chelate iron
  Iron chelating activity IC50: 3095.13 ± 438.00 µg/mL

## O=C(O)CCCC[C@@H]1CCSS1 (racemic) [Lipoic acid, lipoic acid]
[3]
  Singlet oxygen scavenging IC50: 46.16 ± 1.16 µg/mL

## tannic acid
WI-38 cells
  Cytotoxicity assay IC50: 581.03 ± 64.97 µg/mL
[1]
  in vitro iron chelation ability (in words): most effective chelator
  Iron chelating activity IC50: 50.22 ± 0.85 µg/mL

## Oc1cc(O)c2c(c1)OC(c1ccc(O)c(O)c1)C(O)C2 (single isomer, unassigned; (+)) [Catechin, (+) catechin]
WI-38 cells
  Cytotoxicity assay IC50: 753.56 ± 31.99 µg/mL
[1]
  in vitro iron chelation ability (in words): failed to chelate iron
  Iron chelating activity IC50: 1940.22 ± 179.61 µg/mL

## O=C1O[C@H]([C@@H](O)CO)C(O)=C1O [Ascorbic acid, ascorbic acid]
[4]
  Hypochlorous acid (HOCl) scavenging IC50: 235.96 ± 5.75 µg/mL
[5]
  DPPH IC50: 5.29 ± 0.28 µg/mL

## C[C@@H]1O[C@@H](OC[C@H]2O[C@@H](Oc3c(-c4ccc(O)c(O)c4)oc4cc(O)cc(O)c4c3=O)[C@H](O)[C@@H](O)[C@@H]2O)[C@H](O)[C@H](O)[C@H]1O [Rutin, rutin]
WI-38 cells
  cytotoxicity against normal cells (in words): negligible cytotoxicity
WST-1 cytotoxicity assay
  IC50 at 48 h: 1230 ± 195 µg/mL (≈ 2020 µM)

## CC(=O)C(=O)[O-].[Na+] [Sodium pyruvate, sodium pyruvate]
[6]
  Hydrogen peroxide (H2O2) scavenging IC50: 3.24 ± 0.30 mg/mL

## O=C(O)c1cc(O)c(O)c(O)c1 [Gallic acid, gallic acid]
Peroxynitrite scavenging
  Peroxynitrite (ONOO-) scavenging IC50: 0.876 ± 0.57 mg/mL

## O=c1c(O)c(-c2ccc(O)c(O)c2)oc2cc(O)cc(O)c12 [Quercetin, quercetin]
[7]
  Superoxide anion scavenging IC50: 42.06 ± 1.35 µg/mL

## O=C(O)CN(CCN(CC(=O)O)CC(=O)O)CC(=O)O [EDTA, Ethylenediamine tetraacetic acid]
[1]
  Iron chelating activity IC50: 1.27 ± 0.05 µg/mL

## O=C(O)c1ccc(-n2nc(-c3ccccc3O)nc2-c2ccccc2O)cc1 [D, desirox]
Iron overloaded mice [8]; change vs B group
  CAT % Change: 26.09%
  GSH % Change: 5.13%
  GST % Change: 35.42%
  SOD % Change: 15.31%
Iron overloaded mice [8]; iron overloaded mice
  CAT: 16.14 ± 3.87 ^c ^f Unit/mg protein and 16.14 ± 3.87^cf Unit/mg protein
  GSH: 0.48 ± 0.02 ^a ^f μg/mg protein and 0.48 ± 0.02^af μg/mg protein
  GST: 3.72 ± 0.36 ^c ^f Unit/mg protein and 3.72 ± 0.36^cf Unit/mg protein
  SOD: 0.47 ± 0.05 ^a ^f Unit/mg protein and 0.47 ± 0.05^af Unit/mg protein
Iron overloaded mice [9]; change vs B group
  ALAT % Change: 52.79%
  ALP % Change: 84.44%
  ASAT % Change: 17.36%
  Bilirubin % Change: 10.97%
Iron overloaded mice [9]; iron overloaded mice
  ALAT: 23.29 ± 1.09 ^c ^f Unit/l and 23.29 ± 1.09^cf Unit/l
  ALP: 61.01 ± 2.44 ^c ^f Unit/l and 61.01 ± 2.44^cf Unit/l
  ASAT: 79.35 ± 4.36 ^a ^f Unit/l and 79.35 ± 4.36^af Unit/l
  Bilirubin: 1.68 ± 0.15 ^f mg/dl

## O=C1c2ccccc2C(=O)c2c(O)c(O)cc(O)c21 [Purpurin, purpurin]
WI-38 cells
  cytotoxicity against normal cells (in words): negligible cytotoxicity
WST-1 cytotoxicity assay
  IC50 at 48 h: 1470 ± 291 µg/mL (≈ 5730 µM)
[1]
  Iron chelating activity IC50: 252.37 ± 4.08 µg/mL
